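Values below derive from 48-hour exposures of cells grown in 96-well plates, with endpoints linearly interpolated between the two concentrations bracketing the appropriate inhibition level. Here, GI50 denotes the concentration required for 50% inhibition of growth.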 Calls of active or inactive are those of the source. Cut-off read from the data, not from the text of the source: active = GI50 up to about 1.1 µM and inactive = higher.
Legend:
Test in all cases: NCI-60 cell line screen, 48 h
[1] = system: A549
[2] = system: LXFL 529
[3] = system: TK-10
[4] = system: HOP-18
[5] = system: U-251
[6] = system: KM-20L2
[7] = system: SNB-19
[8] = system: SW-620
[9] = system: SF-268
[10] = system: DMS-273
[11] = system: KM12
[12] = system: SK-MEL-28
[13] = system: DLD-1
[14] = system: OVCAR-4
[15] = system: OVCAR-3
[16] = system: 786-0
[17] = system: SNB-75
[18] = system: LOX IMVI
[19] = system: NCI-H226
[20] = system: M19-MEL
[21] = system: OVCAR-8
[22] = system: HL-60
[23] = system: EKVX
[24] = system: XF498
[25] = system: SK-OV-3
[26] = system: K562
[27] = system: SF-539
[28] = system: M14
[29] = system: SF-295
[30] = system: HCT-116
[31] = system: CCRF-CEM
[32] = system: NCI-H23
[33] = system: RPMI-8226
[34] = system: NCI-H522
[35] = system: IGROV-1
[36] = system: SN12C
[37] = system: NCI-H460
[38] = system: SK-MEL-5
[39] = system: HCC 2998
[40] = system: SNB-78
[41] = system: MOLT-4
[42] = system: HT-29
[43] = system: UACC-62
[44] = system: RXF 393
[45] = system: COLO 205
[46] = system: HOP-62
[47] = system: DMS-114
[48] = system: A498
[49] = system: CAKI-1
[50] = system: Malme-3M
[51] = system: HCT-15
[52] = system: UO-31
[53] = system: OVCAR-5
[54] = system: ACHN
[55] = system: UACC-257
[56] = system: HOP-92
[57] = system: SK-MEL-2
[58] = system: SR

## COCN1C(=O)C2CC(/C=C/C(N)=O)=CN2C(=O)c2ccccc21 (stereo unspecified)
[1]
  GI50: > 100 µM (inactive)
[2]
  GI50: > 100 µM (inactive)
[3]
  GI50: > 100 µM (inactive)
[4]
  GI50: > 100 µM (inactive)
[5]
  GI50: > 100 µM (inactive)
[6]
  GI50: > 100 µM (inactive)
[7]
  GI50: > 100 µM (inactive)
[8]
  GI50: > 100 µM (inactive)
[9]
  GI50: > 100 µM (inactive)
[10]
  GI50: > 100 µM (inactive)
[11]
  GI50: > 100 µM (inactive)
[12]
  GI50: > 100 µM (inactive)
[13]
  GI50: > 100 µM (inactive)
[14]
  GI50: > 100 µM (inactive)
[15]
  GI50: > 100 µM (inactive)
[16]
  GI50: > 100 µM (inactive)
[17]
  GI50: > 100 µM (inactive)
[18]
  GI50: > 100 µM (inactive)
[19]
  GI50: > 100 µM (inactive)
[20]
  GI50: > 100 µM (inactive)
[21]
  GI50: > 100 µM (inactive)
[22]
  GI50: > 100 µM (inactive)
[23]
  GI50: > 100 µM (inactive)
[24]
  GI50: > 100 µM (inactive)
[25]
  GI50: > 100 µM (inactive)
[26]
  GI50: > 100 µM (inactive)
[27]
  GI50: > 100 µM (inactive)
[28]
  GI50: > 100 µM (inactive)
[29]
  GI50: > 100 µM (inactive)
[30]
  GI50: > 100 µM (inactive)
[31]
  GI50: > 100 µM (inactive)
[32]
  GI50: > 100 µM (inactive)
[33]
  GI50: > 100 µM (inactive)
[34]
  GI50: > 100 µM (inactive)
[35]
  GI50: > 100 µM (inactive)
[36]
  GI50: > 100 µM (inactive)
[37]
  GI50: > 100 µM (inactive)
[38]
  GI50: > 100 µM (inactive)
[39]
  GI50: > 100 µM (inactive)
[40]
  GI50: > 100 µM (inactive)
[41]
  GI50: > 100 µM (inactive)
[42]
  GI50: > 100 µM (inactive)
[43]
  GI50: > 100 µM (inactive)
[44]
  GI50: > 100 µM (inactive)
[45]
  GI50: > 100 µM (inactive)
[46]
  GI50: > 100 µM (inactive)
[47]
  GI50: > 100 µM (inactive)

## COc1ccc(/N=N/c2c(-c3ccccc3)nn(C(=O)CC(=O)Nc3cccc(Cl)c3)c2-c2ccccc2)cc1
[1]
  GI50: 32.3 µM (inactive)
[2]
  GI50: > 100 µM (inactive)
[3]
  GI50: 72.9 µM (inactive)
[4]
  GI50: 66.8 µM (inactive)
[5]
  GI50: > 100 µM (inactive)
[6]
  GI50: 66.1 µM (inactive)
[7]
  GI50: > 100 µM (inactive)
[8]
  GI50: > 100 µM (inactive)
[9]
  GI50: > 100 µM (inactive)
[10]
  GI50: > 100 µM (inactive)
[11]
  GI50: 10.9 µM (inactive)
[12]
  GI50: > 100 µM (inactive)
[13]
  GI50: 40.6 µM (inactive)
[14]
  GI50: 67.9 µM (inactive)
[48]
  GI50: > 100 µM (inactive)
[49]
  GI50: 34.5 µM (inactive)
[15]
  GI50: 29.6 µM (inactive)
[16]
  GI50: > 100 µM (inactive)
[17]
  GI50: 6.08 µM (inactive)
[50]
  GI50: > 100 µM (inactive)
[18]
  GI50: > 100 µM (inactive)
[19]
  GI50: 4.82 µM (inactive)
[20]
  GI50: > 100 µM (inactive)
[21]
  GI50: > 100 µM (inactive)
[22]
  GI50: > 100 µM (inactive)
[23]
  GI50: 29.4 µM (inactive)
[24]
  GI50: > 100 µM (inactive)
[25]
  GI50: > 100 µM (inactive)
[26]
  GI50: 85.7 µM (inactive)
[27]
  GI50: 68.9 µM (inactive)
[29]
  GI50: 26.9 µM (inactive)
[51]
  GI50: > 100 µM
[52]
  GI50: 5.11 µM (inactive)
[30]
  GI50: 45.6 µM (inactive)
[31]
  GI50: > 100 µM (inactive)
[32]
  GI50: 22.6 µM (inactive)
[33]
  GI50: > 100 µM (inactive)
[53]
  GI50: 61.2 µM (inactive)
[34]
  GI50: 43 µM (inactive)
[35]
  GI50: > 100 µM (inactive)
[54]
  GI50: > 100 µM (inactive)
[36]
  GI50: > 100 µM (inactive)
[37]
  GI50: 49.3 µM (inactive)
[38]
  GI50: 72.9 µM (inactive)
[55]
  GI50: > 100 µM (inactive)
[56]
  GI50: 40.6 µM (inactive)
[39]
  GI50: 21.5 µM (inactive)
[41]
  GI50: 70.1 µM (inactive)
[42]
  GI50: > 100 µM (inactive)
[43]
  GI50: > 100 µM (inactive)
[45]
  GI50: > 100 µM (inactive)
[46]
  GI50: 24.2 µM (inactive)
[47]
  GI50: 45.8 µM (inactive)
[57]
  GI50: > 100 µM (inactive)

## CCOC(=O)C1S/C(=N\C(=N)N[N+](=O)[O-])N=C1C (stereo unspecified)
[1]
  GI50: > 100 µM (inactive)
[2]
  GI50: > 100 µM (inactive)
[3]
  GI50: > 100 µM (inactive)
[4]
  GI50: > 100 µM (inactive)
[5]
  GI50: > 100 µM (inactive)
[6]
  GI50: > 100 µM (inactive)
[7]
  GI50: > 100 µM (inactive)
[8]
  GI50: > 100 µM (inactive)
[9]
  GI50: > 100 µM (inactive)
[11]
  GI50: > 100 µM (inactive)
[12]
  GI50: > 100 µM (inactive)
[13]
  GI50: > 100 µM (inactive)
[14]
  GI50: > 100 µM (inactive)
[48]
  GI50: > 100 µM (inactive)
[15]
  GI50: > 100 µM (inactive)
[16]
  GI50: > 100 µM (inactive)
[17]
  GI50: > 100 µM (inactive)
[50]
  GI50: > 100 µM (inactive)
[18]
  GI50: > 100 µM (inactive)
[19]
  GI50: > 100 µM (inactive)
[20]
  GI50: > 100 µM (inactive)
[21]
  GI50: > 100 µM (inactive)
[22]
  GI50: > 100 µM (inactive)
[23]
  GI50: > 100 µM (inactive)
[24]
  GI50: > 100 µM (inactive)
[26]
  GI50: > 100 µM (inactive)
[27]
  GI50: > 100 µM (inactive)
[29]
  GI50: > 100 µM (inactive)
[51]
  GI50: > 100 µM
[52]
  GI50: > 100 µM (inactive)
[30]
  GI50: > 100 µM (inactive)
[32]
  GI50: > 100 µM (inactive)
[33]
  GI50: > 100 µM (inactive)
[53]
  GI50: > 100 µM (inactive)
[34]
  GI50: > 100 µM (inactive)
[35]
  GI50: > 100 µM (inactive)
[54]
  GI50: > 100 µM (inactive)
[36]
  GI50: > 100 µM (inactive)
[37]
  GI50: > 100 µM (inactive)
[55]
  GI50: > 100 µM (inactive)
[56]
  GI50: > 100 µM (inactive)
[39]
  GI50: > 100 µM (inactive)
[41]
  GI50: > 100 µM (inactive)
[42]
  GI50: > 100 µM (inactive)
[44]
  GI50: > 100 µM (inactive)
[45]
  GI50: > 100 µM (inactive)
[58]
  GI50: > 100 µM (inactive)
[46]
  GI50: > 100 µM (inactive)
[47]
  GI50: > 100 µM (inactive)
[57]
  GI50: > 100 µM (inactive)

Source: ChEMBL document CHEMBL1201862, “PubChem BioAssay data set” (2004)
